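A five-concentration, 48-hour dose response in 96-well plates underlies each endpoint, interpolated linearly between surrounding concentrations. Abbreviation: GI50, concentration required for 50% inhibition of growth. The concentration for full growth arrest is given as TGI.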
What was measured:
Test in all cases: NCI tumour cell line growth inhibition, 48 h
[1] = test system: K-562 leukemia
[2] = test system: M14 melanoma
[3] = test system: MALME-3M melanoma
[4] = test system: MDA-MB-231 breast
[5] = test system: MOLT-4 leukemia
[6] = test system: OVCAR-3 ovarian
[7] = test system: OVCAR-4 ovarian
[8] = test system: SK-MEL-2 melanoma
[9] = test system: SK-OV-3 ovarian
[10] = test system: SN12C renal

Row | Compound | GI50 [1] [nM] | TGI [1] [µM] | GI50 [2] [nM] | TGI [2] [µM] | GI50 [3] [nM] | TGI [3] [µM] | GI50 [4] [nM] | TGI [4] [µM] | GI50 [5] [nM] | TGI [5] [µM] | GI50 [6] [nM] | TGI [6] [µM] | GI50 [7] [nM] | TGI [7] [µM] | GI50 [8] [nM] | TGI [8] [µM] | GI50 [9] [µM] | TGI [9] [µM] | GI50 [10] [nM] | TGI [10] [µM]
1 | O=C(CN1CCN(c2cc3c(cc2F)c(=O)c(C(=O)N/N=C/c2ccccc2O)cn3C2CC2)CC1)N/N=C\c1ccccc1O | 389 | > 100 | 384 | 5.02 | 627 | > 63.4 | 533 | > 69.3 | 267 | > 100 | 269 | > 100 | 204 | > 100 | 1660 | > 100 | 0.763 | > 100 | 694 | > 100
2 | COc1cc(/C=C/c2cc(/C=C/c3ccc(O)c(OC)c3)n(C(=O)Nc3ccc(F)cc3)n2)ccc1O | 371 | 2.91 | 460 | 7.5 | 743 | 7.85 | 2160 | > 65.3 | 471 | > 22.8 | 474 | 3.13 | 1360 | 7.57 | 515 | 3.32 | 1.04 | 4.33 | 953 | 34.1
3 | Cc1nc2c(nc1C)C(=O)c1ccccc1C2=O |  | 32.1 |  | 2.26 |  | 0.704 |  | 35.6 |  | 48 |  | 13.3 |  | 14.1 |  | 6.57 |  | 82.6 |  | 6.4
4 | CSc1ccccc1C#C/C=C\C#Cc1ccccc1N1CCCC1=O |  | > 12.2 | > 12300 | > 50 |  | > 50 |  | > 50 |  | > 17.6 |  | > 14 | > 22100 | > 50 |  | > 50 |  | > 50 | > 26200 | > 50
5 | O=C1/C(=C/c2ccc([N+](=O)[O-])cc2)COc2ccc(O)c(O)c21 | 547 | > 100 | 1540 | 3.3 | 1840 | 5.22 | 1330 | 2.81 | 1290 | > 100 | 790 | 2.14 | 1440 | 2.78 | 1870 | 4.37 | 2.98 | 9.62 | 1540 | 4.19
6 | COc1cc(C(=O)/C=C/c2sc(Cl)nc2Cl)cc(OC)c1OC | 1840 | > 100 | 1850 | 3.57 | 1590 | 3.14 | 1650 | 3.07 | 2210 | 5.49 | 1770 | 3.21 | 1770 | 3.19 | 2390 | 5.86 | 6.43 | 19.8 | 1740 | 3.2
7 | Cc1cc(=O)[nH]c2cc3oc4ccccc4c3cc12 |  | > 100 |  | > 100 |  | > 100 |  | > 100 |  | > 48.5 |  | > 89.4 |  | > 100 |  | > 100 |  | > 100 |  | > 100
8 | COc1cc2nc(-c3ccc(C(F)(F)F)cc3)cc(OCCCN3CCC(O)CC3)c2cc1OC | 1790 | 16.7 | 535 | 2.26 | 2650 | 11.8 | 919 | 15.6 | 3270 | 18.4 | 6100 | 22.2 | 9140 | 22 | 3850 | 16.5 | 10.6 | 25.3 | 1440 | 19.7
9 | O=C1c2cccnc2-c2nc(-c3ccccc3[N+](=O)[O-])cc3c2c1nc1ccccc13 | > 28800 | > 100 | 2990 | 10.7 | 3110 | 14.8 | 3890 | > 100 |  | > 100 | 432 | > 32.4 | 6630 | > 70.4 | 10300 | 53.1 | 67 | > 100 | 15600 | 37.9
10 | COc1cc2c(c(OC)c1O)C(=O)C(OC)C(c1ccc(O)c(O)c1)O2 (stereo unspecified) | 48 | > 100 | 155 | > 100 | 48300 | > 100 | 554 | > 100 | 482 | > 100 | 343 | > 32.7 | > 100000 | > 100 | 1280 | > 100 | 8.23 | > 100 | 426 | > 100
11 | C[C@@H](CS(C)(=O)=O)Nc1ncc2cc(Oc3ccc(F)cc3F)c(=O)n(C)c2n1 | > 25000 | > 25 | > 25000 | > 25 | > 25000 | > 25 | > 25000 | > 25 | > 25000 | > 25 | > 25000 | > 25 | > 25000 | > 25 | > 25000 | > 25 | > 25 | > 25 | > 25000 | > 25
12 | COc1ccc(-c2cc(-c3ccc(Nc4nc(Nc5ccccc5)nc(Nc5ccc(Cl)cc5)n4)cc3)nc(N)c2C#N)cc1 | 1520 | > 18.6 | 887 | 1.81 | 801 | 1.8 | 1010 | 2.46 | 958 | > 50 | 761 | 1.52 | 1060 | 3.2 | 1090 | 2.66 | > 28.3 | > 50 | 2030 | > 50
13 | COc1ccc2c(c1)C(=O)/C(=C/c1ccc(OCC(=O)Nc3nccs3)cc1)O2 | 1840 |  | 3030 | 13.5 | 858 | 4.15 | 748 | 5.78 | 2090 | > 100 | 204 | 0.398 | 2260 | 14.5 | 231 | 0.588 | 17.4 | > 95.4 | 2510 | 18.9

From PubChem BioAssay (NCI)
